Experiments:
glod-4 animals = assay: LC-MS/MS estimation of a-DC levels (MGO, GO) in worms; type: in vivo, Caenorhabditis elegans; settings: for Levels of GO / Levels of MGO: glod-4, PA; for Levels of GO: LA, or UMP (20 pM each) vs EtOH control; for Levels of MGO: LA, or UMP (20 pM) vs EtOH control
Method: Worms were cultured on NGM agar plates as explained before for lifespan experiments with some modifications: ˜100 animals/60 mm plates were used for each experimental replicate and animals were harvested at day 4 of adulthood with 20 pL M9 buffer in 1.5 mL eppendorf tubes. Worm suspensions were flash-frozen over liquid nitrogen and subsequently homogenized ultrasonically using a Fisher Scientific's 550 Sonic Dismembrator with 80 pL of sodium formate buffer (pH=3) containing 75 pM of 2,3-hexanedione (internal standard, IS). Two 20 s pulses at amplitude setting 4 of the instrument (on ice) were sufficient to completely homogenize worm bodies. To each homogenate tube 20 pL of 100 mg/mL o-phenelynediamine (OPD) solution in sodium formate buffer (pH=3) were added, and the mixture was allowed to react in dark at room temperature for ˜22 h. The long reaction time and the pH are critical parameters in this protocol: first to ensure complete derivatization of a-DCs bound reversibly to protein/glutathione —SHs; and second to prevent in vitro a-DC generation from glycolytic intermediates (DHAP, GAP, etc.) or due to DNA breakdown (Chaplen et al. (1998) Proc. Natl. Acad. Sci. USA, 95: 5533-5538). At the end of the stipulated reaction window, 12 pL of 5 M perchloric acid was added to each tube and incubated on ice for 30 min to ensure complete protein precipitation. Subsequently, the tubes were centrifuged at 10,000 rpm for 10 min, and the supernatant collected and neutralized with 30 pL 4 M NH4OH solution.
Optimization of analyte-specific MRM transitions, such as determination of suitable precursor and product ions and optimal MS parameters for each transition (Q1, precursor→Q3, product) were achieved by isocratic flow injection of the 10 pM solution (final) for each standard- or IS-OPD derivatives. The most intense (Q1→Q3) transition was used as quantifier, whereas the next best transition was used as qualifier for each compound (Table 4). For LC separation, a solvent gradient of 0.1% acetic acid in water (aqueous) - methanol (organic) was used with 0.4 mL/min flow rate, starting with an […] content of 3% for 0.7 min, which was increased to 100% over 6 min and held at 100% for 1.5 min. The LC column was subsequently reconstituted to its initial condition (methanol content of 3%) over the next 0.5 min and re-equilibrated for 3 min.
Derivatized metabolome extracts, as well as synthetic a-DCs were analyzed by scheduled LC-MRM in positive ion mode. To develop the scheduled LC-MRM method, MS/MS data was collected for all transitions across the length of each LC run for a mixture of synthetic GO-, MGO-, 3DG-, and 2,3-hexanedione (IS)-OPD derivatives (1 pL injection of 1 pM final concentration). Source conditions were as follows: curtain gas (CUR) 20, nebulizer gas (GS1) 60, auxiliary gas (GS2) 50, ionspray voltage (IS) 4500 V, and source temperature (TEM) 450° C. This step was undertaken to ascertain the LC retention times (RT) for the OPD derivatives. Several such sets were acquired to compute analyte-specific variability in RTs. Next, the MS was switched to operate in scheduled MRM mode, whereby the mass spectrometer acquired data for specific MRM transitions ±45 s around the computed RT for the analyte (Table 4). Relative quantification of GO, MGO, and 3DG were based on integration of corresponding OPD derivative-specific quantifier peaks obtained from scheduled LC-MRM runs (peak areas) and adjusted to the number of animals. To account for OPD derivatization efficiencies in individual tubes, sample-to-sample variability in MS response, and differential sample dilutions (both for synthetic a-DCs as well as a-DCs in worm homogenates), the peak areas were normalized to the quantifier peak area for IS-OPD for each sample.

C. elegans = assay: Neuronal damage assay, pan-neuronal GFP reporter (unc-33p::gfp); type: in vivo, Caenorhabditis elegans
Method: Animals were paralyzed using freshly prepared 5 mM levamisole in M9 buffer and mounted on 2% agar pads under glass coverslips. […] Images were acquired under 40× objective. Neuronal deterioration was examined and characterized by loss of fluorescent intensity of nerve ring, neuronal waviness, and thinning and fragmentation of axons and neuronal commissures. Quantification and imaging of animals harboring damage was performed using the Image J™ software (//imagei.nih.gov/ii/).

[1] = test system: 50B11 cells (immortalized rat DRG neuronal cells); assay: MGO-mediated neurotoxicity in differentiated 50B11 cells (DIC imaging, neurite length, soma size); type: cell-based; settings: 20-24 h
Method: 50B11 cells (immortalized rat DRG neuronal cells) maintain self-replication capability over many cell divisions (>300). The results described in this article were obtained with cells between 100 and 400 passages. Cells were grown in antibiotic treated complete Neurobasal media containing glucose, L-glutamine, Fetal Bovine Serum (FBS), B-27 supplement, and nerve growth factor (NGF) (100 ng/ml). Differentiation and axonal elongation was induced by addition of forskolin (75 pM) into the culture medium. […] Methylglyoxal was administered at a final concentration of 250 pM for 20-24 h post-differentiation of the cells. Podocarpic acid was added at a final concentration of 250 pM and incubated for the same period with or without methylglyoxal. Ethanol was used as a vehicle control. […] Neurite outgrowth was quantified by manually measuring the length of a projection from the edge of the cell body; a neurite was defined as a thin projection longer than the diameter of the associated cell body. Area of soma or cell body was measured excluding the neurite projections. Images were processed using Image Analyst MKII software (www.imageanalyst.net/) and quantification was done using Image J software (//imagei.nih.gov/ij/). 75-100 cells selected randomly were considered for quantification under each experimental condition.

| Structure (SMILES) | Levels of GO (glod-4 animals) | Levels of MGO (glod-4 animals) | Neuronal damage (C. elegans; unc-33p::gfp, day 4 of adulthood, 7 mM MGO vs water) | Neurite length (neurite outgrowth) ([1]; MGO 250 pM) | Soma size (cell bodies) ([1]; MGO 250 pM) | Levels of MGO under trpa-1 knockdown (glod-4 animals; glod-4 on trpa-1 RNAi, PA vs EtOH control) | Neuronal damage (C. elegans; unc-33p::gfp on glod-4 RNAi, day 10 of adulthood, PA (20 pM) vs EtOH control) | MGO-induced neurotoxic phenotypes (cell body size, neurite outgrowth) ([1]; PA and MGO each at 250 pM) |
| --- | --- | --- | --- | --- | --- | --- | --- | --- |
| O=C(O)CCCCC1CCSS1 (stereo not shown) [LA, a-lipoic acid] | almost wild-type-like levels | almost wild-type-like levels |  |  |  |  |  |  |
| CC(=O)C=O [MGO, methylglyoxal] |  |  | neuronal damage | significant retraction of neurite outgrowths | shrinkage in cell bodies |  |  |  |
| C[C@]1(C(=O)O)CCC[C@]2(C)c3cc(O)ccc3CC[C@@H]12 [PA, podocarpic acid] | almost wild-type-like levels | almost wild-type-like levels |  |  |  | no effect | prevent the prominent neuronal damages | ameliorate these MGO-induced neurotoxic phenotypes |

— patent US20180015051A1, “MODULATORS OF ALPHA-DICARBONYL DETOXIFICATION AND THEIR USE FOR THE TREATMENT OF DIABETIC PATHOLOGIES” (Buck Institute for Research on Aging, priority 2016, published 2018)
